pEC50: −log10 of the molar value. No end group written: not given here.
Columns and labels:
human MrgprX1 (hMrgprX1) = human MrgprX1 (hMrgprX1) (Homo sapiens, UniProt Q96LB2); experiment: cell-based; assay type: cell-based
[1] = tested on: hMrgprX1;Mrgpr-cluster∆−/− transgenic mouse; conditions: in vivo

human MrgprX1 (hMrgprX1), sequence (Q96LB2 whole entry, looked up): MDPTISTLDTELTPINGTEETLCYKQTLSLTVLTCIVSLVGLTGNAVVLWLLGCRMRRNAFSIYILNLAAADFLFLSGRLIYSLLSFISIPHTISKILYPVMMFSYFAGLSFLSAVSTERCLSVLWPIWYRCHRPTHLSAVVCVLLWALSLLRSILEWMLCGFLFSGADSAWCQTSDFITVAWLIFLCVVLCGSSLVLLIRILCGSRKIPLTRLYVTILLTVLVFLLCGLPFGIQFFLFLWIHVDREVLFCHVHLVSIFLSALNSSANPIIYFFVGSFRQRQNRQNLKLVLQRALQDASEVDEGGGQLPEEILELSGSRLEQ

Substance	Activation of hMrgprX1 (human MrgprX1 (hMrgprX1))	pEC50 (human MrgprX1 (hMrgprX1))	Potency in activating hMrgprX1 relative to CNF-Vc1 (human MrgprX1 (hMrgprX1))	Itch-related scratching after intradermal cheek injection of peptide [1]
HSGILLAWSGPRNRFVRI-NH2 [CNF-Tx2]	activates	6.27	at least threefold more potent	induces significant scratching
WSGPRNRFVRF-NH2 [CNF-Vc1(7–18)]	can activate	–	–	–

From paper PMC6299835 (Toxicon : official journal of the International Society on …, 2018)
